Values quoted from earlier work in patent publication US20120095034A1, “PIPERIDINE DERIVATIVES USEFUL AS OREXIN RECEPTOR ANTAGONISTS” (priority 2007, published 2012).
No end group written: not given here.

System: rats
Settings: central administration at the onset of the normal sleep period, rat

orexin-A: ligand for the orexin-1 receptor; an agonist of the orexin receptors (QPLPDCCRQKTCSCRLYELLHGAGNHAAGILTL; ends and bridges not checked; cysteine pairing not given here; UniProt O43612 34-66, looked up)
arousal: dose-related increase in arousal
